We go through one compound from US7763654B2, “Crystal polymorph of hydroxynorephedrin derivative hydrochloride” (Kissei Pharmaceutical Co., Ltd., priority 2005, dated 2010).

Data set [1] in a line: Stability Test 1 (60° C.), storage for a week; HPLC, powder X-ray diffraction, appearance. The data set is classed as physicochemical. The note with it: for residual percentage (chemical purity %): HPLC; for crystal form: powder X-ray diffraction. The procedure: (§1) The powder X-ray diffraction data of each crystal polymorph were measured by X-ray diffractometer RINT 2100 ultima+manufactured by Rigaku Denki Corporation (measuring conditions; CuK α rays, 40 kV in X-ray tube voltage, 40 mA in X-ray tube current). The 2θ value of diffraction pattern by the powder X-ray diffractometry may deviate in some cases by a factor of about 0.5° depending on the sample conditions and measuring conditions. In addition, due to the properties of data, a total diffraction pattern of the powder X-ray diffractometry is important for the identification of crystals. The TG/DTA measurements of each crystal polymorph were conducted by thermogravimetry analyzer (TG/DTA) ThermoPlus 2 series TG8120 manufactured by Rigaku Denki Corporation (measuring conditions; temperature rising rate 10° C./minutes, samplepan (Al), reference (Al2O3), under a nitrogen atmosphere). Melting points of each crystal were searched from differential thermal analysis (DTA) endothermic peak (extrapolation). The solid state C^13-NMR spectrums of each crystal polymorph were measured by AVANCE/DRX500 manufactured by Bruker (measuring conditions; accumulated counts 512 times, contact time 3 msec, repeated time 5 sec, probe 4 mm MAS, observed frequency 125.77 Mhz, spinning rate 10000 Hz).
After ethyl (−)-2-[4-[2-[[(1S,2R)-2-hydroxy-2-(4-hydroxyphenyl)-1-methylethyl]amino]ethyl]-2,5-dimethylphenoxy]-acetate hydrochloride obtained in Example 1 was stored at 60° C. for a week, chemical stability was determined by measuring the residual percentage of ethyl (−)-2-[4-[2-[[(1S,2R)-2-hydroxy-2-(4-hydroxylphenyl)-1-methylethyl]amino]ethyl]-2,5-dimethylphenoxy]acetate hydrochloride by HPLC and polymorphic stability was examined by the powder X-ray diffraction measurement.

Data set [2] is described as follows: Stability Test 2 (140° C.), heating, powder X-ray diffraction. The following applies: after heating to 140° C. The data set is classed as physicochemical. The procedure:
as §1, with “Hz). […]” for “Hz).”

The mark [3] stands for this setting: after 1 week storage at 60° C., hydrochloride.
Setting [4] is: after 1 week storage at 60° C., listed as crystal form C, hydrochloride.

`CCOC(=O)COc1cc(C)c(CCN[C@@H](C)[C@H](O)c2ccc(O)cc2)cc1C.Cl` [crystalline form C, ethyl (−)-2-[4-[2-[[(1S,2R)-2-hydroxy-2-(4-hydroxyphenyl)-1-methylethyl]amino]ethyl]-2,5-dimethylphenoxy]-acetate hydrochloride]: in data set [1] (setting [3]), the “residual percentage (chemical purity %)” value is recorded as “constant”, the appearance entry is listed as “no change in appearance” and the crystal form result is given as “polymorphic transformation did not occur”. In addition, in data set [1] (setting [4]), the “residual percentage (chemical purity %)” value is recorded as 99.6%, the appearance entry is listed as “white” and the crystal form result is listed as “crystal form C”. Moreover, in data set [1] (at start), the appearance result was “white”, the “residual percentage (chemical purity %)” value amounted to 99.6% and the crystal form entry is on record as “crystal form C”. Moreover, the “change of the crystalline form” value in data set [2] is reported as “still crystalline form C”.
